Results from US11446286B1 (KING FAISAL UNIVERSITY, priority 2022, dated 2022).
Values after ≈ are worked out from the molar mass of the structure shown.

Experiments:
[1] = tested on: A. fumigatus systemic infection; experiment: Systemic aspergillosis mouse model; type: in vivo, mice; conditions: for liver histopathology (H&E): vs infected animals; for heart histopathology (H&E): vs infected group; for serum levels of ALT, AST, uric acid, and creatinine: systemic A. fumigatus infection, day 7, compared with infected nontreated group (combination: also vs noninfected control)
Protocol: (§1) Four-week-old mice were obtained from Kafrelshikh university animal sourcing. Food and water were given ad libitum. The mice were handled according to the instructions and regulations of the ethics committee.
(§2) To help in the induction of fungal infection, mice were immunocompromised by Endoxan® (cyclophosphamide), injected i.v. at a dose rate of 100 mg/kg. The injection of cyclophosphamide was at three and one days before infection. Systemic candidiasis and aspergillosis were induced by intravenous injection of 0.2 ml of each cell suspension into the tail vein using 1-ml syringe and a 27-G, ½-in. needle. The C. albicans cells and Aspergillus conidia were obtained as described above. After plating, the cells were suspended in sterile saline. Each mouse received 5×10^4 blastospores. All drugs were given at a dose rate of 5 mg/kg via the oral route suspended in methylcellulose. […] Treatment was continued daily for seven days. On the seventh day, the mice were sacrificed, and blood and tissue samples were collected. Tissue samples from liver, kidney, lungs, and heart were stored in 10% formalin and fixed for histopathological and immunohistochemical examination.
(§3) Standard histopathological sections stained with hematoxylin and eosin were performed. Immunohistochemistry was performed following the instructions of the antibodies manufacturer (Theiino Scientific, Waltman, MA, USA). The antibodies comprised CD45 and CXCR4.
Serum samples from the systemic Aspergillus experiments discussed above were analyzed using known techniques to detect serum levels of ALT, AST, uric acid, and creatinine.

[2] = tested on: C. albicans systemic infection; experiment: Systemic candidiasis mouse model; type: in vivo, mice; conditions: for lung histopathology (H&E): vs non-treated infected mice; for serum levels of ALT, AST, uric acid, and creatinine: systemic candidiasis, day 7, compared with infected nontreated group (combination: also vs noninfected control)
Protocol: as §1, §2, §3
Serum samples from the systemic candidiasis experiments discussed above were analyzed using known techniques to detect serum levels of ALT, AST, uric acid, and creatinine.

[3] = tested on: Penicillium marneffei AUMC No. 9370; experiment: In vitro antifungal assay (agar well); type: cell-based
Protocol: (§4) In vitro studies were performed including a total of 31 fungal strains. The strains were obtained from the American Type Culture Collection (ATCC) or were isolated locally and provided by the fungal research centers at Alazhar and Assiut universities, Egypt. Dabigatran's antifungal activity was tested against 31 fungal strains, as previously described. (Johnson, T. R. and Case, C. L., “Laboratory experiments in microbiology” Pearson/Benjamin Cummings (2004)) The in vitro studies included a total of 31 fungal strains. Fungal strains were separately grown in universal tubes with 20 ml of Sabouraud's dextrose broth for 3-7 days to create inocula for antifungal tests. Bioassays were carried out in 10 cm sterile Petri dishes containing 15 ml Sabouraud's dextrose agar medium and microbial suspension. Using a sterile cork borer, 5 mm diameter cavities were bored in the solidified agar (3 cavities/plate) after the media had hardened. […] Controls were prepared using DMSO and fluconazole. Candida cultures were incubated for 72 hours at 27° C., while other fungal cultures were incubated for up to seven days.

[4] = tested on: Trichophyton mentagrophytes AUMC No. 14492; experiment: In vitro antifungal assay (agar well); type: cell-based
Protocol: as §4

[5] = tested on: Aspergillus niger AUMC No. 14408; experiment: In vitro antifungal assay (agar well); type: cell-based
Protocol: as §4

[6] = tested on: Mucor circillelloides AUMC No. 3704; experiment: In vitro antifungal assay (agar well); type: cell-based
Protocol: as §4

[7] = tested on: Penicillium italicum RCMB 001018 (1) IMI 193019; experiment: In vitro antifungal assay (agar well); type: cell-based
Protocol: as §4

[8] = tested on: Cryptococcus neoformas RCMB 0049001; experiment: In vitro antifungal assay (agar well); type: cell-based
Protocol: as §4

[9] = tested on: Candida tropicalis RCMB 005004; experiment: In vitro antifungal assay (agar well); type: cell-based; conditions: 72 hours at 27° C.
Protocol: as §4

[10] = tested on: Microsporum canis AUMC No. 14454; experiment: In vitro antifungal assay (agar well); type: cell-based
Protocol: as §4

[11] = tested on: Aspergillus ustus AUMC No. 3605; experiment: In vitro antifungal assay (agar well); type: cell-based
Protocol: as §4

[12] = tested on: Penicllium marneffeii RCMB 001034; experiment: In vitro antifungal assay (agar well); type: cell-based
Protocol: as §4

[13] = tested on: Aspergillus flavus AUMC No. 1276; experiment: In vitro antifungal assay (agar well); type: cell-based
Protocol: as §4

[14] = tested on: Cryptococcus neoformans AUMC No. 2795; experiment: In vitro antifungal assay (agar well); type: cell-based
Protocol: as §4

[15] = tested on: Aspergillus fumigatus AUMC No. 14358; experiment: In vitro antifungal assay (agar well); type: cell-based
Protocol: as §4

[16] = tested on: Candida albicans RCMB 005003 (1) ATCC 10231; experiment: In vitro antifungal assay (agar well); type: cell-based; conditions: 72 hours at 27° C.
Protocol: as §4

[17] = tested on: Candida tropicalis AUMC No. 9158; experiment: In vitro antifungal assay (agar well); type: cell-based; conditions: 72 hours at 27° C.
Protocol: as §4

[18] = tested on: Penicillium aurantiogriseum IMI 89372; experiment: In vitro antifungal assay (agar well); type: cell-based
Protocol: as §4

[19] = tested on: Aspergillus nidulans AUMC No. 14333; experiment: In vitro antifungal assay (agar well); type: cell-based
Protocol: as §4

[20] = tested on: Candida lipolytica RCMB 005007; experiment: In vitro antifungal assay (agar well); type: cell-based; conditions: 72 hours at 27° C.
Protocol: as §4

[21] = tested on: Candida alibicans AUMC No. 9160; experiment: In vitro antifungal assay (agar well); type: cell-based; conditions: 72 hours at 27° C.
Protocol: as §4

[22] = tested on: Sporotlirix schenckii AUMC No. 2739; experiment: In vitro antifungal assay (agar well); type: cell-based
Protocol: as §4

[23] = tested on: Candida glabrata AUMC No. 9166; experiment: In vitro antifungal assay (agar well); type: cell-based; conditions: 72 hours at 27° C.
Protocol: as §4

[24] = tested on: Aspergillus terreus AUMC No. 14389; experiment: In vitro antifungal assay (agar well); type: cell-based
Protocol: as §4

[25] = tested on: Aspergillus flavus RCMB 002002; experiment: In vitro antifungal assay (agar well); type: cell-based
Protocol: as §4

[26] = tested on: Fusarium moniliforme RCMB 001006; experiment: In vitro antifungal assay (agar well); type: cell-based
Protocol: as §4

[27] = tested on: Trichophyton rubrum AUMC No. 1804; experiment: In vitro antifungal assay (agar well); type: cell-based
Protocol: as §4

[28] = tested on: C. albicans vaginal infection; experiment: Vaginal candidiasis mouse model; type: in vivo, mice; conditions: for CD45-positive cells in vaginal tissue (IHC, semi-quantitative) / vaginal histology (H&E): topical into the vagina 5 mg/kg daily for seven days; for CXCR4 expression in the vaginal epithelial mucosa (IHC): treated for 7 days, vs C. albicans infected Model animals
Protocol: Standard histopathological sections stained with hematoxylin and eosin were performed. Immunohistochemistry was performed following the instructions of the antibodies manufacturer (Theiino Scientific, Waltman, MA, USA). The antibodies comprised CD45 and CXCR4. Mice vagina infected with C. albicans was used to evaluate the anticandidal actions of dabigatran. To help in induction of vaginal candidiasis, mice were immunocompromised by injection of 0.1 mg of β-estradiol in 10 μl of sesame oil 72 h and 24 h before vaginal infection for induction of estrus. Infection was done during the estrus phase by intravaginal dropping of the Candida blastoconidia. Each mouse received 3×10^6 blastospores into the vaginal cavity. Uninoculated control mice (the control group) were injected intravaginally with sterile saline. […] All drugs were given topically into the vagina at a dose rate of 5 mg/kg daily for seven days post-infection. On the seventh day, the mice were sacrificed, and blood and vaginal samples were collected. At ×400 magnification, five visual random fields were analyzed. An adopted procedure was used to assess the degree of infection and inflammation (Zhang, J. E., et al., “Feasibility of histological scoring and colony count for evaluating infective severity in mouse vaginal candidiasis,” Experimental Animals, 62(3): pp. 205-10 (2013)). The average scores of five fields were recorded.

[29] = tested on: Syncephalastrurn racemosum RCMB 016001; experiment: In vitro antifungal assay (agar well); type: cell-based, Syncephalastrum racemosum
Protocol: as §4

31 fungal strains = experiment: In vitro antifungal assays, all isolates; type: cell-based; conditions: over the fungal strains tested
Protocol: as §4

[30] = tested on: Penicillium expansurn RCMB 001001 IMI28169; experiment: In vitro antifungal assay (agar well); type: cell-based, Penicillium expansum
Protocol: as §4

[31] = tested on: Aspergillus furnigatus (RCMB 002008); experiment: In vitro antifungal assay (agar well); type: cell-based, Aspergillus fumigatus
Protocol: as §4

[32] = tested on: Geotricurn candidum RCMB 026008; experiment: In vitro antifungal assay (agar well); type: cell-based, Geotricum candidum
Protocol: as §4

[33] = immunocompromised mice, A. fumigatus i.v., 5 mg/kg oral daily for seven days
[34] = immunocompromised mice, C. albicans i.v., 5 mg/kg oral daily for seven days

CCCCCCOC(=O)NC(=N)c1ccc(NCc2nc3cc(C(=O)N(CCC(=O)OCC)c4ccccn4)ccc3n2C)cc1 [Dabigatran etexilate]
kidney histopathology (H&E) [1, 33]: modest improvements
lung histopathology (H&E), inflammation [1, 33]: decreased airspace areas because of red blood cells extravasation
liver histopathology (H&E) [1, 33]: Comparable histopathological injuries
heart histopathology (H&E) [1, 33]: comparable
serum levels of ALT, AST, uric acid, and creatinine [1]: significantly decreased all serum markers
kidney histopathology (H&E) [2, 34]: minor histological differences
liver histopathology (H&E) [2, 34]: typical hepatic architecture with the presence of very few inflammatory cells, moderate degeneration, and no necrosis
lung histopathology (H&E) [2, 34]: substantially improved
protective effect against systemic C. albicans fungal infection ([2]; mice, 5 mg/kg oral daily for seven days): potent protective effect
serum levels of ALT, AST, uric acid, and creatinine [2]: significantly decreased all serum markers
MIC [3]: 64 µg/mL (≈ 102 µM)
MIC [4]: 32 µg/mL (≈ 51 µM)
MIC [5]: 128 µg/mL (≈ 204 µM)
MIC [6]: 64 µg/mL (≈ 102 µM)
MIC [7]: 64 µg/mL (≈ 102 µM)
MIC [8]: 16 µg/mL (≈ 25.5 µM)
MIC [9]: 128 µg/mL (≈ 204 µM)
MIC [10]: 128 µg/mL (≈ 204 µM)
MIC [11]: 64 µg/mL (≈ 102 µM)
MIC [12]: 256 µg/mL (≈ 408 µM)
MIC [13]: 64 µg/mL (≈ 102 µM)
MIC [14]: 32 µg/mL (≈ 51 µM)
MIC [15]: 128 µg/mL (≈ 204 µM)
MIC [16]: 16 µg/mL (≈ 25.5 µM)
MIC [17]: 128 µg/mL (≈ 204 µM)
MIC [18]: 32 µg/mL (≈ 51 µM)
MIC [19]: 64 µg/mL (≈ 102 µM)
MIC [20]: 16 µg/mL (≈ 25.5 µM)
MIC [21]: 32 µg/mL (≈ 51 µM)
MIC [22]: 16 µg/mL (≈ 25.5 µM)
MIC [23]: 32 µg/mL (≈ 51 µM)
MIC [24]: 128 µg/mL (≈ 204 µM)
MIC [25]: 128 µg/mL (≈ 204 µM)
MIC [26]: 16 µg/mL (≈ 25.5 µM)
MIC [27]: 32 µg/mL (≈ 51 µM)
CD4+ T cells in vaginal tissue (IHC, figure legends) ([28]; FIGS. 18 and 19, number / migration to lamina propria): dramatically decreased
CD45-positive cells in vaginal tissue (IHC, semi-quantitative) [28]: Mild to moderate CD45-positive cells spread across the submucosa
vaginal histology (H&E) [28]: considerable reduction in inflammation and injury to the vaginal epithelial mucosa
CXCR4 expression in the vaginal epithelial mucosa (IHC) [28]: significant decrease
MIC [29]: 8 µg/mL (≈ 12.7 µM)
range of MIC values (31 fungal strains): 8 to 256 µg/mL
MIC [30]: 128 µg/mL (≈ 204 µM)
MIC [31]: 64 µg/mL (≈ 102 µM)
MIC [32]: 32 µg/mL (≈ 51 µM)

OC(Cn1cncn1)(Cn1cncn1)c1ccc(F)cc1F [fluconazole]
liver histopathology (H&E) [1, 33]: Comparable histopathological injuries
heart histopathology (H&E) [1, 33]: comparable
serum levels of ALT, AST, uric acid, and creatinine [1]: significant decrease in all markers, except creatinine
liver histopathology (H&E) [2, 34]: moderate inflammatory cell infiltration in the perivascular regions, mild sinusoidal congestion, and few apoptotic cells
lung histopathology (H&E) [2, 34]: slightly ameliorated the lung damage
serum levels of ALT, AST, uric acid, and creatinine [2]: significant decrease in ALT levels only
CD45-positive cells in vaginal tissue (IHC, semi-quantitative) [28]: Mild to moderate CD45-positive cells spread across the submucosa
vaginal histology (H&E) [28]: modest sub-epithelial inflammatory reaction
CXCR4 expression in the vaginal epithelial mucosa (IHC) [28]: significant decrease
